This test deals with M. tuberculosis H37Rv growth inhibition. Briefly: M. tuberculosis H37Rv growth inhibitors, H37Rv strain (AID 1626). The settings on record: for IC90: measured here: IC90 against H37Rv; for CC50: measured here: Vero cell cytotoxicity.

Among the data in PubChem BioAssay AID1626 (SRMLSC, 2009) are IC50, IC90 and CC50 values, retold here.

What is called IC50 is the concentration at which inhibition is half-maximal. One may read the IC90 as the concentration needed for an effect of 90%. Lower therefore signals an effect from little substance. One may read the CC50 as the concentration giving 50% cytotoxicity. A lower CC50 goes with harm at low concentration.

In the case of `Nc1ccc2c(c1)C(=O)C(=O)c1ccccc1-2`, the IC50 is 0.401 µM, the concentration for an effect of 90% (IC90) worked out at 13.5 µM and the CC50 turned out to be 3.16 µM.
As to `CC(C)[C@H](CO)N(Cc1cccc(F)c1)c1nc(Nc2cccc(Cl)c2)c2ncn(C(C)C)c2n1`, the IC50 was 7.31 µM, the IC90 is 14.1 µM and the CC50 is more than 40 µM.
The compound `Cc1nc2ccc(NC(=O)C(F)(F)F)cc2o1` yielded a 90% effect concentration (IC90) of more than 100 µM.
As for `CCOC(=O)CSc1nc(N)c(C#N)c(CC(C)C)c1C#N`, the IC50 was 1.44 µM and the IC90 was determined as 8.77 µM.
Regarding `CCOC(=O)c1cnc(-n2nc(C)cc2C)nc1NC1CCCC1`, the half-inhibitory concentration (IC50) was 0.755 µM, the IC90 stood at 0.859 µM and the cytotoxic concentration (CC50) was 15.2 µM.
`CCOC(=O)c1ccc(NC(=O)Cc2coc3cc4c(cc23)CCC4)cc1`: the 50% inhibitory concentration (IC50) was 6.36 µM, the IC90 is more than 100 µM and the 50% cytotoxic concentration (CC50) was more than 40 µM.
`COc1ccc(N2CSC3=C(C#N)C(c4cccc(OC)c4OC)CC(=O)N3C2)cc1` (stereo not given): the IC50 was 54.7 µM and the 90% effect concentration (IC90) was more than 100 µM.
As for `O=C(Nc1nc(-c2ccccn2)cs1)C1CCCC1`, the half-maximal inhibitory concentration (IC50) was 2.54 µM, the concentration for an effect of 90% (IC90) was found to be 5.83 µM and the CC50 is more than 40 µM.
As for `COc1ccc2c(c1)CCc1c-2nc2ccccc2c1N1CCOCC1`, the half-maximal inhibitory concentration (IC50) is 11.5 µM, the concentration for an effect of 90% (IC90) turned out to be 18.6 µM and the CC50 is more than 40 µM.
As to `CCOC(=O)c1cnc(-n2nc(C)cc2C)nc1N(CC)CC`, the IC50 was 3.78 µM, the concentration for an effect of 90% (IC90) was found to be 6.53 µM and the 50% cytotoxic concentration (CC50) was more than 40 µM.
On to `COc1ccccc1C(=O)OCC(=O)Nc1ccc(Cl)cn1`, for which the IC50 is 22.6 µM, the 90% effect concentration (IC90) was more than 100 µM and the CC50 was more than 40 µM.
For the compound `C=CCOc1ccc(CN(C)Cc2nc3cc(C(F)(F)F)ccc3c(=O)[nH]2)cc1`, the half-inhibitory concentration (IC50) is 12.4 µM and the IC90 is more than 100 µM.
With `CC(C)N1CCC2(CC1)N=C(c1ccc3c(c1)OCO3)CC(c1cc(Cl)ccc1O)N2` (stereo not given), the half-inhibitory concentration (IC50) was 8.26 µM, the concentration for an effect of 90% (IC90) came to 12.4 µM and the half-maximal cytotoxic concentration (CC50) amounted to 12.5 µM.
`Clc1ccc(-[n+]2c(-c3cccc(Br)c3)[nH]c3nc4ccccc4nc32)cc1` returned a 90% effect concentration (IC90) of more than 100 µM and a CC50 of more than 40 µM.
On to `COc1ccc(-c2nn(-c3ccccc3)cc2/C=N/N=C(N)N)cc1OC`, for which the 50% inhibitory concentration (IC50) was 13.3 µM, the IC90 was 22.6 µM and the CC50 was found to be 32.3 µM.
As for `CC(C)=CCOc1ccc([C@@H]2COc3c(ccc4c3C=CC(C)(C)O4)C2)c(O)c1`, the IC50 was 19.4 µM, the IC90 was determined as 60.9 µM and the half-maximal cytotoxic concentration (CC50) was more than 40 µM.
In the case of `O=C(CSc1nc(-c2ccccc2Cl)ns1)Nc1ccc2c(c1)OCO2`, the CC50 is more than 40 µM.
For the compound `CCCCOC(=O)c1ccc(NC(=O)CSc2nnnn2C)cc1`, the IC50 was 19 µM and the IC90 was more than 100 µM.
For the compound `CCOC(=O)c1cnn(C(=O)c2ccccc2)c1N`, the 90% effect concentration (IC90) was more than 100 µM.
As for `O=Cc1ccc(-c2ccc(Cl)cc2Cl)[nH]1`, the half-maximal inhibitory concentration (IC50) is 8.46 µM and the IC90 is more than 100 µM.
`CCOc1cc(/C=C2\SC(=N)N(c3nccs3)C2=O)ccc1OCCN1CCOCC1`: the concentration for half-maximal inhibition (IC50) was 0.393 µM, the IC90 turned out to be 1.02 µM and the CC50 turned out to be 19.1 µM.
In the case of `CC(C)(C)c1ccc(OCCCC(=O)NC2=NCCS2)cc1`, the IC50 is 11.8 µM, the IC90 is more than 100 µM and the half-maximal cytotoxic concentration (CC50) was more than 40 µM.
`C=C1C2(C(=O)Nc3ccc(SC(F)F)cc3)CCC(C2)C1(C)C` (stereo not given) gave an IC90 of more than 100 µM.
`Cc1ccc(-c2nn(-c3ccccc3)cc2C=O)o1` gave a CC50 of more than 40 µM.
Regarding `Cc1ccc(C(=O)NCCSC(C)(C)C)cc1[N+](=O)[O-]`, the IC50 is 2.96 µM and the IC90 stood at 3.32 µM.
In turn, `O=C(COC(=O)/C=C/c1nc2ccccc2s1)Nc1cccc(Cl)c1Cl` registered an IC90 of more than 100 µM.
For `O=C(Nc1nc(-c2ccccn2)cs1)c1ccc(Br)s1`, the 50% inhibitory concentration (IC50) is less than 0.195 µM, the IC90 stood at 0.585 µM and the 50% cytotoxic concentration (CC50) stood at 2.73 µM.
For `O=C(Nc1nnc(-c2ccc(Cl)cc2)o1)C1=COCCO1` the same measures were 6.4 µM, 11.4 µM and more than 40 µM.
Regarding `CCC(=O)Nc1ccc(-c2nc3ccccc3c(=O)o2)cc1`, the 50% inhibitory concentration (IC50) was 18 µM and the IC90 was 84 µM.
For `CCOc1ccc(NC(=O)CSc2ccccc2N)cc1`, the 90% effect concentration (IC90) was more than 100 µM.
`COC(=O)c1c(NC(=O)CC2SC(N)=NC2=O)sc2c1CCC(C(C)(C)C)C2` (stereo not given): the IC50 was 16.4 µM, the IC90 is 24 µM and the CC50 turned out to be 35 µM.
On to `O=C1/C(=C/c2cccnc2)Oc2cc(OS(=O)(=O)c3ccc(F)cc3)ccc21`, for which the IC50 was 72.6 µM and the 90% effect concentration (IC90) was more than 100 µM.
For `Cc1ccc(-c2nsc(SCC(=O)Nc3ccc4c(c3)OCO4)n2)cc1` the same measures were 0.892 µM and 2.51 µM.
Regarding `Cc1ccc(OCCC(=O)Nc2ccc(C)c(F)c2)cc1`, the IC90 is more than 100 µM.
Regarding `Cc1cc(NCc2ccccn2)n2ncc(-c3ccccc3)c2n1`, the IC50 was 4.82 µM, the IC90 turned out to be 7.62 µM and the CC50 stood at 31.4 µM.
On the same counts, the results for `CCCCOc1ccc(NC(=O)c2cnc(C)cn2)cc1` are 22.1 µM, more than 100 µM and more than 40 µM.
On to `C=CCn1c(SCc2csc(-c3ccc(C)cc3)n2)nnc1-c1ccccc1OC`, for which the half-maximal inhibitory concentration (IC50) was 16.5 µM, the concentration for an effect of 90% (IC90) turned out to be 23.8 µM and the 50% cytotoxic concentration (CC50) was more than 40 µM.
In turn, `COc1ccc(-c2nn(-c3ccccc3)cc2C(=O)Nc2nccs2)cc1` yielded an IC90 of more than 100 µM and a CC50 of more than 40 µM.
For the compound `O=C(/C=C/c1ccccc1)/C=C/c1ccccc1`, the IC50 was 5.86 µM, the IC90 came out at 6.68 µM and the CC50 was 31.2 µM.
`CC(C)OC(=O)c1ccc(NC(=O)c2cncc(Br)c2)cc1` had an IC90 of more than 100 µM.
On to `CCCCCC(=O)Nc1ccc2ccccc2c1`, for which the IC50 is less than 0.195 µM and the IC90 was more than 100 µM.
On to `CCOc1ccc(N=C(/C(C(=O)C(=O)N2CCOCC2)=C(\O)c2ccccc2)c2ccccc2)cc1`, for which the 50% inhibitory concentration (IC50) is 38.6 µM and the 90% effect concentration (IC90) was more than 100 µM.
`O=C(/C=C/c1ccc(OCCCF)cc1)Nc1ccnc(-c2ccncc2)n1`: the 50% inhibitory concentration (IC50) is 84.1 µM, the concentration for an effect of 90% (IC90) was more than 100 µM and the 50% cytotoxic concentration (CC50) was more than 40 µM.
In the case of `N#C/C(=C/c1ccc(N2CCCCC2)o1)C(=O)NCCc1c[nH]c2ccccc12`, the 50% inhibitory concentration (IC50) is 41 µM, the concentration for an effect of 90% (IC90) is more than 100 µM and the cytotoxic concentration (CC50) is more than 40 µM.
With `CCOC(=O)c1ccc(NC(=O)Oc2cc(C)c(Cl)cc2C(C)C)cc1`, the IC50 was 11.4 µM and the concentration for an effect of 90% (IC90) was more than 100 µM.
Take `O=C1N(c2ccc3c(c2)OCCO3)C(c2ccccc2)C1(F)F` (stereo not given): the half-inhibitory concentration (IC50) is 2.57 µM and the concentration for an effect of 90% (IC90) was 7.34 µM.
With `CCOC(=O)/C=C/C(=O)Nc1nccs1`, the concentration for an effect of 90% (IC90) is more than 100 µM.
On to `Cn1ncc2c(Nc3cccc(Cl)c3)nc(Nc3cccc(Cl)c3)nc21`, for which the IC50 is 11.7 µM, the IC90 stood at 23.6 µM and the cytotoxic concentration (CC50) came to 26.9 µM.
On to `COc1ccc(C[C@H]2CN3C(=NC[C@@H]3Cc3ccc(O)cc3)N2C[C@H](C)NC(=O)c2ccc(C)c(Br)c2)cc1`, for which the IC50 was 6.33 µM and the IC90 was 9.21 µM.
As to `Cc1ccc(NC2=CC(=O)C(=O)c3ccccc32)cc1`, the IC50 was 1.49 µM, the IC90 amounted to 1.94 µM and the CC50 is 6.94 µM.
Take `Cc1ccc(C(=O)N2CCN(c3ccc(NC(=O)COc4ccccc4C)cc3)CC2)cc1`: the concentration for half-maximal inhibition (IC50) was 9.58 µM, the IC90 was more than 100 µM and the cytotoxic concentration (CC50) was more than 40 µM.
On to `COc1ccc(C(CCN2CCCC(C)C2)c2c(OC)cc(OC)c3c(-c4ccccc4)cc(=O)oc23)cc1` (stereo not given), for which the concentration for half-maximal inhibition (IC50) was 7.53 µM, the IC90 is 10.2 µM and the 50% cytotoxic concentration (CC50) came out at 14.1 µM.
In the case of `CCn1ccnc1CN1CCCC(C(=O)c2ccc3cc(OC)ccc3c2)C1` (stereo not given), the half-maximal inhibitory concentration (IC50) was 10.9 µM, the IC90 amounted to 25.5 µM and the 50% cytotoxic concentration (CC50) is more than 40 µM.
Turning to `O=C(Nc1nnc(-c2ccc3c(c2)CCCC3)o1)c1ccc(Cl)cc1Cl`, the IC50 was 0.625 µM, the concentration for an effect of 90% (IC90) came to 0.962 µM and the half-maximal cytotoxic concentration (CC50) is more than 40 µM.
Turning to `CCCCOC(=O)c1ccc(N=Nc2c(C)c(C#N)c(O)[nH]c2=O)cc1`, the half-inhibitory concentration (IC50) is less than 0.195 µM and the IC90 is more than 100 µM.
`Cc1ccc(Nc2nc(N3CCN(C)CC3)nc(N)c2[N+](=O)[O-])cc1C`: the IC50 is 9.67 µM and the 90% effect concentration (IC90) is 14.5 µM.
`O=c1c2ccccc2c(C=NC2CCN(Cc3ccccc3)CC2)c(O)n1Cc1ccc2c(c1)OCO2`: the IC50 was 6.36 µM, the 90% effect concentration (IC90) was 12.2 µM and the half-maximal cytotoxic concentration (CC50) was more than 40 µM.
`Cc1nn2c(NCc3ccccn3)cc(C(C)C)nc2c1-c1ccccc1` registered a CC50 of more than 40 µM.
For the compound `CC(NC(=O)c1ccc(Br)cc1)c1ccc2c(c1)CCCC2` (stereo not given), the 50% inhibitory concentration (IC50) was 15.4 µM and the IC90 is more than 100 µM.
As for `CCOC(=O)c1sc2nc(C)[nH]c(=S)c2c1C`, the concentration for half-maximal inhibition (IC50) was 39.1 µM and the IC90 is more than 100 µM.
As to `Cc1cc(NC(=O)C2CCCC2)n(-c2nc3ccccc3[nH]2)n1`, the half-inhibitory concentration (IC50) was 24.6 µM and the IC90 was more than 100 µM.
On the same counts, the results for `CCC(C)Nc1nc2c(C)cccn2c(=O)c1C=Nc1ccc(OC)cc1` (stereo not given) are 52.4 µM and more than 100 µM.
Regarding `COc1ccc(N=Cc2cc(Cl)ccc2O)cc1Cl`, the IC50 was 7.49 µM and the concentration for an effect of 90% (IC90) is more than 100 µM.
As for `NS(=O)(=O)c1ccc(CCNc2ncnc3c2c(-c2ccccc2)cn3-c2ccc(F)cc2)cc1`, the IC50 is 5.77 µM, the concentration for an effect of 90% (IC90) was 6.76 µM and the half-maximal cytotoxic concentration (CC50) was more than 40 µM.
As to `Cc1cc(Cl)cc(C)c1OCCCCn1ccnc1`, the IC50 is 9.33 µM, the IC90 amounted to 12.7 µM and the half-maximal cytotoxic concentration (CC50) is more than 40 µM.
Turning to `CN1Cc2c(N3CCOCC3)nc3sc(C(=O)c4ccc(Br)cc4)c(N)c3c2CC1(C)C`, the concentration for half-maximal inhibition (IC50) is 5.56 µM, the IC90 is 6.26 µM and the half-maximal cytotoxic concentration (CC50) was found to be 10.2 µM.
In the case of `Cc1ccccc1OCc1nc(-c2ccc(NC(=O)c3cccs3)cc2)no1`, the IC50 was 4.48 µM and the concentration for an effect of 90% (IC90) is 46.6 µM.
